Our source for the IC50 values is patent US8901118B2, “Compounds and methods for kinase modulation, and indications therefor” (Plexxikon Inc., priority 2010, dated 2014).

In one test the target is T1, BCR-NTRK2 BaF3 cells (Homo sapiens, UniProt Q16620).
T1 construct: fused on or other part: P11274 (Breakpoint cluster region protein)
In words: BaF3 BCR-NTRK2 cell proliferation assay (ATPlite). The test is classed as cell-based. Conditions: read-out: Inhibition of Cell Proliferation IC50, BCR/BaF3 TrkB. Here is the method: Compounds are assessed in a variety of cell based assays. For example BaF3 cells engineered with any of BCR-FMS, BCR-KIT, BCR-FLT3, BCR-NTRK1, BCR-NTRK2, and BCR-NTRK3, are used in cell proliferation assays to assess inhibitory activity of Fms, Kit, Flt-3, TrkA, TrkB, and TrkC, respectively. An MV-4-11 (leukemia) cell proliferation assay is used to assess inhibitory activity in Flt-3, and SKNSH (human neuroblastoma) cell proliferation assay is used to assess efficacy of Fms/Trk inhibitors. Additional cells may be assayed similarly to assess the efficacy of Fms/Trk inhibitors, such as MiaPaCa (human pancreatic cancer) and Capan-1 (human pancreatic carcinoma) cells. Reagent and assay conditions are as follows: • BaF3 cells: • Maintained in RPMI containing 10% FBS, 1% PenStrep, 1% NEAA, and 1% L-Glutamine, supplemented with 1 mg/mL G418 and 5% WEHI-CM (or recombinant murine IL-3). • Confluent cells are split 1:50 to 1:100 every 3-4 days. • MV-4-11 cells: • Maintained in Iscove's Modified Dulbecco's Medium containing 10% FBS. • Confluent cells are split 1:4 every 3-4 days. • SKNSH cells: RPMI containing 10% FBS. On day 1, cells are counted, then centrifuged in a conical tube for 5 minutes at 1000 rpm. The supernatant is removed and cells are re-suspended as follows: • BaF3: resuspend in growth media +1 mg/mL G418 (without WEHFIL-3) to 2×10^5 cells/mL. • MV-4-11: resuspend in growth media to 5×10^5 cells/mL. • SKNSH: resuspend in growth media to 2×10^4 cells/mL. The cells are plated (50 μL, 150 μL for SKNSH cells) in each well of a 96-well dish (Corning 3610) and incubated at 37° C. in 5% CO2 overnight, cells plated to a final concentration of cells as follows: • BaF3: 10,000 cells per well. • MV-4-11: 25,000 cells per well. • SKNSH: 3,000 cells per well. On day 2, compound at a maximum concentration of 5 mM is serially diluted 1:3 for a total of 8 point titration with DMSO as a control. A 1 μL aliquot of each dilution point is added to 249 μL growth media and 50 μL is added to a well containing cells, providing 10 μM compound for the maximum concentration point. The cells are incubated for 3 days at 37° C. in 5% CO2. For SKNSH cells, a 0.75 μL aliquot of appropriate dilution in DMSO is added to 150 μL of cells. On day 5, ATPlite 1 step Luminescence Assay System (Perkin Elmer #6016739) is brought to room temperature along with the cell cultures. ATPlite is added to each well as follows: • BaF3: 25 μL per well. • MV-4-11: 40 μL per well. • SKNSH: 20 μL per well. The cells are incubated at room temperature for 10 minutes, then luminescence is read on Safire reader. The measured luminescence correlates directly with cell number, such that the reading as a function of compound concentration is used to determine the IC50 value.
It is understood that the results of these assays may vary as assay conditions are varied. Inhibition levels determined under the conditions described herein represent a relative activity for the compounds tested under the specific conditions employed. The cell based assays are likely to show variability due to the complexity of the system and the sensitivity thereof to any changes in the assay conditions. […] Results for compounds that are tested and show substantially no inhibition below the highest tested concentration are represented as “-” in the tables below. In some instances, the compounds were not tested in all of the assays, or assay results were not valid, as indicated by NA in the tables below.
(In general: ATP-based viability assays read luminescence as a measure of living cells.)

A further test concerns the target CYP2C9 (Homo sapiens, UniProt P11712). In words: CYP2C9 inhibition (fluorescent substrate MFC). Type of test: in vitro ADME. Conditions: read-out: Cyp IC50 2C9. Here is the method:
CYP (Cytochrome P450) enzymes are the major drug metabolizing enzymes present in the liver. The inhibition of CYP enzyme activity (IC50) for each of CYP1A2, CYP2C19, CYP2C9, CYP2D6, CYP3A4(BFC) and CYP3A4(BQ) is determined for compounds, where inhibition of metabolism of a known substrate leads to a decrease in the fluorescence of the metabolized product. The fluorescence of the product is monitored as a function of compound concentration. Compounds are dissolved in DMSO to a concentration of 100 mM. These are diluted 1 μL into 82 μL of acetonitrile. An 11 μL aliquot of this solution is then added to 204 μL of cofactor mix (1.3% NADPH Regeneration system Solution A, 1.04% NADPH Regeneration system Solution B from BD Biosciences, 5% acetonitrile and 0.05% DMSO). These are then serially diluted 1:1 (160 μL to 160 μL co-factor mix) for a total of 10 points. A 10 μL aliquot of this final mixture is dispensed into 384 well assay plates and incubated for 10 minutes at 37° C. […] Assay plates are incubated at 37° C. (CYP1A2-15 min; CYP2C9-45 min; CYP2C19, 2D6 and 3A4-30 min) and read in a Tecan Safire 2 plate reader (CYP1A2, 2C19 and 3A4 409 ex/460 em; CYP2C9 and 2D6 409 ex/530 em). The signal versus compound concentration is used to determine the IC50. The enzymes and substrates for this assay are obtained from BD Biosciences.

T1 sequence (Q16620 538-807): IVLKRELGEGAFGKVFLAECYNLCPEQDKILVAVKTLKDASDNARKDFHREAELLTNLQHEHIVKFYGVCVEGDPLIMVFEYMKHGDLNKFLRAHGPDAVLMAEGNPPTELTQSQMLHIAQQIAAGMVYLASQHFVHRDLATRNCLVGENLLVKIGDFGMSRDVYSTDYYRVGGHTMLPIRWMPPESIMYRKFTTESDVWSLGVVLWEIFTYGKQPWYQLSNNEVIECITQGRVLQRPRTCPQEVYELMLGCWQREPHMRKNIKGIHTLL
Sequence of CYP2C9 (P11712 whole entry): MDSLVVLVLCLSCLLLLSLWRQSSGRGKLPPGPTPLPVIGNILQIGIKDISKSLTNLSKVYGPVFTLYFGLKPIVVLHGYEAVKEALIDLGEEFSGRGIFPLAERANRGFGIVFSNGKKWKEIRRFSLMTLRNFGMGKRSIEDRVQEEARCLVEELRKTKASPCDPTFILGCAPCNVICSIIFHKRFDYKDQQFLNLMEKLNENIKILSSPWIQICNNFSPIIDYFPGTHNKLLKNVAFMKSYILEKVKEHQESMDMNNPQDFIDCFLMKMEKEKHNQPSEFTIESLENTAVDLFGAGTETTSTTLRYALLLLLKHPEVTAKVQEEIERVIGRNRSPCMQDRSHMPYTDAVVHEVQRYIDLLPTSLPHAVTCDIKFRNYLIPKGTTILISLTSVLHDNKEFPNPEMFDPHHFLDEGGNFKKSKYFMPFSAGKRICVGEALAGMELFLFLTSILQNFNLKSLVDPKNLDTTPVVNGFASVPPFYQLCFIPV

Take `COc1ccc(Nc2ccc(C(=O)c3c[nH]c4ncnc(NCc5ccc(C(F)(F)F)nc5)c34)c(F)n2)cn1` [Compound P-4071, [2-fluoro-6-[(6-methoxy-3-pyridyl)amino]-3-pyridyl]-[4-[[6-(trifluoromethyl)-3-pyridyl]methylamino]-7H-pyrrolo[2,3-d]pyrimidin-5-yl]methanone]: the IC50 on BCR-NTRK2 BaF3 cells is under 0.1 µM; at CYP2C9, over 10 µM.
Regarding `CCNc1ncnc2[nH]cc(C(=O)c3ccc(Nc4ccc(OC)nc4)nc3F)c12` [Compound P-4081, [4-(ethylamino)-7H-pyrrolo[2,3-d]pyrimidin-5-yl]-[2-fluoro-6-[(6-methoxy-3-pyridyl)amino]-3-pyridyl]methanone], the IC50 is under 0.01 µM at BCR-NTRK2 BaF3 cells and over 10 µM on CYP2C9.
On to `CCc1ccc(Nc2ccc(C(=O)c3c[nH]c4ncnc(N)c34)c(F)n2)cn1` [Compound P-4065, (4-amino-7H-pyrrolo[2,3-d]pyrimidin-5-yl)-[6-[(6-ethyl-3-pyridyl)amino]-2-fluoro-3-pyridyl]methanone], for which the IC50 is under 0.01 µM at BCR-NTRK2 BaF3 cells and over 10 µM at CYP2C9.
For the compound `CCc1ccc(Nc2ccc(C(=O)c3c[nH]c4ncnc(NC(C)C)c34)c(F)n2)cn1` [Compound P-4117, [6-[(6-ethyl-3-pyridyl)amino]-2-fluoro-3-pyridyl]-[4-(isopropylamino)-7H-pyrrolo[2,3-d]pyrimidin-5-yl]methanone], the IC50 is under 0.01 µM on BCR-NTRK2 BaF3 cells and 5 to 10 µM at CYP2C9.
As for `CCCCNc1ncnc2[nH]cc(C(=O)c3ccc(Nc4ccc(OC)nc4)nc3F)c12` [Compound P-4080, [4-(butylamino)-7H-pyrrolo[2,3-d]pyrimidin-5-yl]-[2-fluoro-6-[(6-methoxy-3-pyridyl)amino]-3-pyridyl]methanone], the results for the IC50 at BCR-NTRK2 BaF3 cells and at CYP2C9 were under 0.01 µM and over 10 µM, respectively.
With `CNc1ncnc2[nH]cc(C(=O)c3ccc(NC4CCC(F)(F)CC4)nc3F)c12` [Compound P-4063, [6-[(4,4-difluorocyclohexyl)amino]-2-fluoro-3-pyridyl]-[4-(methylamino)-7H-pyrrolo[2,3-d]pyrimidin-5-yl]methanone], the IC50 is under 0.1 µM at BCR-NTRK2 BaF3 cells and over 10 µM on CYP2C9.
For the compound `Cc1ccc(Nc2ccc(C(=O)c3c[nH]c4ncnc(NCC5CC5)c34)c(F)n2)cn1` [Compound P-4113, [4-(cyclopropylmethylamino)-7H-pyrrolo[2,3-d]pyrimidin-5-yl]-[2-fluoro-6-[(6-methyl-3-pyridyl)amino]-3-pyridyl]methanone], at CYP2C9, the IC50 is over 10 µM.
For `COc1ccc(Nc2ccc(C(=O)c3c[nH]c4ncnc(NC5CCC(F)(F)CC5)c34)c(F)n2)cn1` [Compound P-4056, [4-[(4,4-difluorocyclohexyl)amino]-7H-pyrrolo[2,3-d]pyrimidin-5-yl]-[2-fluoro-6-[(6-methoxy-3-pyridyl)amino]-3-pyridyl]methanone], the IC50 at BCR-NTRK2 BaF3 cells is under 0.01 µM; on CYP2C9, over 10 µM.
With `CCCNc1ncnc2[nH]cc(C(=O)c3ccc(Nc4ccc(OC)nc4)nc3F)c12` [Compound P-4068, [2-fluoro-6-[(6-methoxy-3-pyridyl)amino]-3-pyridyl]-[4-(propylamino)-7H-pyrrolo[2,3-d]pyrimidin-5-yl]methanone], the figures for the IC50 on BCR-NTRK2 BaF3 cells and at CYP2C9 were under 0.01 µM and over 10 µM, respectively.
Consider `O=C(c1ccc(NC2CCC(F)(F)CC2)nc1Cl)c1c[nH]c2ncnc(NCC(F)(F)F)c12` [Compound P-4057, [2-chloro-6-[(4,4-difluorocyclohexyl)amino]-3-pyridyl]-[4-(2,2,2-trifluoroethylamino)-7H-pyrrolo[2,3-d]pyrimidin-5-yl]methanone], for which the IC50 is over 1 µM at BCR-NTRK2 BaF3 cells and over 10 µM on CYP2C9.
As to `COCCCNc1ncnc2[nH]cc(C(=O)c3ccc(Nc4ccc(OC)nc4)nc3F)c12` [Compound P-4079, [2-fluoro-6-[(6-methoxy-3-pyridyl)amino]-3-pyridyl]-[4-(3-methoxypropylamino)-7H-pyrrolo[2,3-d]pyrimidin-5-yl]methanone], the figures for the IC50 at BCR-NTRK2 BaF3 cells and at CYP2C9 were under 0.01 µM and over 10 µM, respectively.
Take `CNc1ncnc2[nH]cc(C(=O)c3ccc(NC4CCCCC4)nc3F)c12` [Compound P-4102, [6-(cyclohexylamino)-2-fluoro-3-pyridyl]-[4-(methylamino)-7H-pyrrolo[2,3-d]pyrimidin-5-yl]methanone]: the IC50 is under 0.1 µM at BCR-NTRK2 BaF3 cells and under 5 µM at CYP2C9.
As for `COc1ccc(Nc2ccc(C(=O)c3c[nH]c4ncnc(NC5CC5)c34)c(F)n2)cn1` [Compound P-4126, [4-(cyclopropylamino)-7H-pyrrolo[2,3-d]pyrimidin-5-yl]-[2-fluoro-6-[(6-methoxy-3-pyridyl)amino]-3-pyridyl]methanone], the IC50 on BCR-NTRK2 BaF3 cells is under 0.01 µM; at CYP2C9, over 10 µM.
Consider `CCc1ccc(Nc2ccc(C(=O)c3c[nH]c4ncnc(NC5CCOCC5)c34)c(F)n2)cn1` [Compound P-4116, [6-[(6-ethyl-3-pyridyl)amino]-2-fluoro-3-pyridyl]-[4-(tetrahydropyran-4-ylamino)-7H-pyrrolo[2,3-d]pyrimidin-5-yl]methanone], for which the IC50 at BCR-NTRK2 BaF3 cells was under 0.01 µM; at CYP2C9 it was over 10 µM.
As to `Cc1ccc(Nc2ccc(C(=O)c3c[nH]c4ncnc(NC5CCCCC5)c34)c(F)n2)cn1` [Compound P-4111, [4-(cyclohexylamino)-7H-pyrrolo[2,3-d]pyrimidin-5-yl]-[2-fluoro-6-[(6-methyl-3-pyridyl)amino]-3-pyridyl]methanone], the IC50 on BCR-NTRK2 BaF3 cells was under 0.01 µM; at CYP2C9, 5 to 10 µM.
Consider `Clc1cnc2[nH]cc(Cc3cnc(Nc4ccccc4Cl)nc3)c2c1` [Compound P-3015, (2-Chloro-phenyl)-[5-(5-chloro-1H-pyrrolo[2,3-b]pyridin-3-ylmethyl)-pyrimidin-2-yl]-amine], for which, on BCR-NTRK2 BaF3 cells, the IC50 was over 10 µM.
`Fc1ccccc1Nc1ncc(Cc2c[nH]c3ncc(Cl)cc23)cn1` [Compound P-3014, [5-(5-Chloro-1H-pyrrolo[2,3-b]pyridin-3-ylmethyl)-pyrimidin-2-yl]-(2-fluoro-phenyl)-amine]: the IC50 on BCR-NTRK2 BaF3 cells was over 10 µM.
As for `CCCNc1ncnc2[nH]cc(C(=O)c3ccc(Nc4ccc(C)nc4)nc3F)c12` [Compound P-4114, [2-fluoro-6-[(6-methyl-3-pyridyl)amino]-3-pyridyl]-[4-(propylamino)-7H-pyrrolo[2,3-d]pyrimidin-5-yl]methanone], the IC50 on CYP2C9 is over 10 µM.
